Positions count from the first letter of the chain named.

This note sets out measurements from patent publication US20260234157A1, “COMPOUND AND METHOD FOR TARGETED DEGRADATION OF ANDROGEN RECEPTOR” (Gan & Lee Pharmaceuticals Co., Ltd., priority 2023, published 2026).

In the first test the target is T1, AR protein (Homo sapiens, UniProt P10275, T878A).
T1 construct: degradation activity of the compounds disclosed in the present disclosure on AR protein in LNCaP cells; host or cells: LNCaP FGC
T1 sequence (P10275 1-920 T878A): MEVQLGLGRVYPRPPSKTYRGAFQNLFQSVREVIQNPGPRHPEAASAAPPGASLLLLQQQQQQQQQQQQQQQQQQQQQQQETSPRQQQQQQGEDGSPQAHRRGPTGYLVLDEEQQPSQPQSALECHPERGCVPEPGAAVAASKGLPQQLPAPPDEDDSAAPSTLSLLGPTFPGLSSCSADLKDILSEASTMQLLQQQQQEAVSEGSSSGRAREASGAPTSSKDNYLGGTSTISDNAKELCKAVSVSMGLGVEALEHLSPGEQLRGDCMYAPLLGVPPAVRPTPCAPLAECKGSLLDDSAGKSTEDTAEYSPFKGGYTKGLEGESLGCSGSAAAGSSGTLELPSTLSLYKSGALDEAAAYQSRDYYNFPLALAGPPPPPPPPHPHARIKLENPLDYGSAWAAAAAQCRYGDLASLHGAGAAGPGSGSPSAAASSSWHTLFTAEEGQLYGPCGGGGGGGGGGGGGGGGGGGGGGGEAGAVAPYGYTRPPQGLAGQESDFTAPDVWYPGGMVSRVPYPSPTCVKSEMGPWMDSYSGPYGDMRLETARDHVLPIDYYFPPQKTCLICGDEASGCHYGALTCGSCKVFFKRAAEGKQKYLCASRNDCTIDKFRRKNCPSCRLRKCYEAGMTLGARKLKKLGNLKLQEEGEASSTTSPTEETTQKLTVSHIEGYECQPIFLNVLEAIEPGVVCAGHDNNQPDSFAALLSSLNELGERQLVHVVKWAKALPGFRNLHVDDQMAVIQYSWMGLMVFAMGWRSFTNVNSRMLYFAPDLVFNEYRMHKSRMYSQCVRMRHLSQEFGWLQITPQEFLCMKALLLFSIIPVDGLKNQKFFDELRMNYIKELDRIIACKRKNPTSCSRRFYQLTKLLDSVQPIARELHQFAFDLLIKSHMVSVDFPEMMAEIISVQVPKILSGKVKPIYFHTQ
The experiment in a line: Degradation of AR protein in LNCaP cells (Western blot). The format is cell-based. As to conditions: LNCaP cells, compound 10 nM, 8 hours, Western blot grayscale, GAPDH internal reference; read-out: Degradation rates of the AR protein in LNCaP cells, 10 nM (%). Put shortly: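 AR assessed by SDS-PAGE/Western blot with infrared imaging; band greyscale normalised to GAPDH gave percent degradation.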
On to `COc1cc(OC2CCC(NC(=O)c3cnc(N4CCC(C)(CN5CCC6(CC5)COc5c6ccc6c5CN(C5CCC(=O)NC5=O)C6=O)CC4)nc3)CC2)ccc1C#N` (stereo not shown) [Compound 247], for which the inhibition at 0.01 µM was -10%.
As to `N#Cc1ccc(O[C@H]2CC[C@H](NC(=O)c3ccc(C#CC4CC5(C4)CC(N4CCC6(CC4)COc4c6ccc6c4CN(C4CCC(=O)NC4=O)C6=O)C5)nn3)CC2)cc1Cl` (stereo partly shown) [Compound 252], the inhibition at 0.01 µM amounted to 56%.
On the same count and under the same terms, with `N#Cc1ccc(O[C@H]2CC[C@H](NC(=O)c3ccc(N4CCC5(CCC(C(=O)N6CCC7(CC6)COc6c7ccc7c6CN(C6CCC(=O)NC6=O)C7=O)CC5)CC4)nn3)CC2)cc1Cl` (stereo partly shown) [Compound 253] the figure was 37%.
Same read-out and setting: then `COCC1(CN2CCC3(CC2)COc2c3ccc3c2CN(C2CCC(=O)NC2=O)C3=O)CCN(c2ccc(C(=O)N[C@H]3CC[C@H](Oc4ccc(C#N)c(Cl)c4)CC3)nn2)CC1` (stereo partly shown) [Compound 258], with 71%; and `COc1cc(O[C@H]2C(C)(C)[C@H](NC(=O)c3ccc(N4CCC(C)(CN5CCC6(CCc7ccc8c(c7O6)C(=O)N(C6CCC(=O)NC6=O)C8=O)CC5)CC4)cc3)C2(C)C)ccc1C#N` (stereo partly shown) [Compound 268], with 15%.

Still in this test, the particulars now being: LNCaP cells, compound 100 nM, 8 hours, Western blot grayscale, GAPDH internal reference; read-out: Degradation rates of the AR protein in LNCaP cells, 100 nM (%).
Take `COc1cc(OC2CCC(NC(=O)c3cnc(N4CCC(C)(CN5CCC6(CC5)COc5c6ccc6c5CN(C5CCC(=O)NC5=O)C6=O)CC4)nc3)CC2)ccc1C#N` (stereo not shown) [Compound 247]: the inhibition at 0.1 µM amounted to 27%.
The same measure, in the same setting: then `N#Cc1ccc(O[C@H]2CC[C@H](NC(=O)c3ccc(C#CC4CC5(C4)CC(N4CCC6(CC4)COc4c6ccc6c4CN(C4CCC(=O)NC4=O)C6=O)C5)nn3)CC2)cc1Cl` (stereo partly shown) [Compound 252], with 70%; and `N#Cc1ccc(O[C@H]2CC[C@H](NC(=O)c3ccc(N4CCC5(CCC(C(=O)N6CCC7(CC6)COc6c7ccc7c6CN(C6CCC(=O)NC6=O)C7=O)CC5)CC4)nn3)CC2)cc1Cl` (stereo partly shown) [Compound 253], with 41%.
On the same count and under the same terms, with `COCC1(CN2CCC3(CC2)COc2c3ccc3c2CN(C2CCC(=O)NC2=O)C3=O)CCN(c2ccc(C(=O)N[C@H]3CC[C@H](Oc4ccc(C#N)c(Cl)c4)CC3)nn2)CC1` (stereo partly shown) [Compound 258] the figure was 67%; with `COc1cc(O[C@H]2C(C)(C)[C@H](NC(=O)c3ccc(N4CCC(C)(CN5CCC6(CCc7ccc8c(c7O6)C(=O)N(C6CCC(=O)NC6=O)C8=O)CC5)CC4)cc3)C2(C)C)ccc1C#N` (stereo partly shown) [Compound 268], 31%.

Another test has as its target T2, AR protein (Homo sapiens, UniProt P10275).
T2 construct: degradation activity of the compounds disclosed in the present disclosure on AR protein in VCaP cells; host or cells: VCaP
T2 sequence (P10275 1-920): T1 sequence (P10275 1-920 T878A) with A878T
The test can be described thus: Degradation of AR protein in VCaP cells (Western blot). The format is cell-based. As to conditions: compound at 10 nM, 8 hours, read-out: Degradation rate of the AR protein in VCaP cells, 10 nM (%). Put shortly: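 VCaP cells treated with compound alongside solvent controls for 8 h, then lysed in RIPA and protein quantified by BCA. AR detected by SDS-PAGE/Western blot with infrared imaging. Degradation rate calculated from band grayscale, with GAPDH as internal reference.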
Background: A western blot detects proteins with antibodies after separation by electrophoresis.
Take `COc1cc(OC2CCC(NC(=O)c3cnc(N4CCC(C)(CN5CCC6(CC5)COc5c6ccc6c5CN(C5CCC(=O)NC5=O)C6=O)CC4)nc3)CC2)ccc1C#N` (stereo not shown) [Compound 247]: the inhibition at 0.01 µM stood at 53%.
The same measure, in the same setting: with `N#Cc1ccc(O[C@H]2CC[C@H](NC(=O)c3ccc(C#CC4CC5(C4)CC(N4CCC6(CC4)COc4c6ccc6c4CN(C4CCC(=O)NC4=O)C6=O)C5)nn3)CC2)cc1Cl` (stereo partly shown) [Compound 252] the figure was 80%.
For the molecule `N#Cc1ccc(O[C@H]2CC[C@H](NC(=O)c3ccc(N4CCC5(CCC(C(=O)N6CCC7(CC6)COc6c7ccc7c6CN(C6CCC(=O)NC6=O)C7=O)CC5)CC4)nn3)CC2)cc1Cl` (stereo partly shown) [Compound 253], the inhibition at 0.01 µM is 10%.
For the molecule `COCC1(CN2CCC3(CC2)COc2c3ccc3c2CN(C2CCC(=O)NC2=O)C3=O)CCN(c2ccc(C(=O)N[C@H]3CC[C@H](Oc4ccc(C#N)c(Cl)c4)CC3)nn2)CC1` (stereo partly shown) [Compound 258], the inhibition at 0.01 µM turned out to be 60%.
Still for that read-out and setting: then `COc1cc(O[C@H]2C(C)(C)[C@H](NC(=O)c3ccc(N4CCC(C)(CN5CCC6(CCc7ccc8c(c7O6)C(=O)N(C6CCC(=O)NC6=O)C8=O)CC5)CC4)cc3)C2(C)C)ccc1C#N` (stereo partly shown) [Compound 268], with -26%.

The test is the same for the next values; noted with them: compound at 100 nM, 8 hours, read-out: Degradation rate of the AR protein in VCaP cells, 100 nM (%).
For the molecule `COc1cc(OC2CCC(NC(=O)c3cnc(N4CCC(C)(CN5CCC6(CC5)COc5c6ccc6c5CN(C5CCC(=O)NC5=O)C6=O)CC4)nc3)CC2)ccc1C#N` (stereo not shown) [Compound 247], the inhibition at 0.1 µM came out at 70%.
On the same count and under the same terms, with `N#Cc1ccc(O[C@H]2CC[C@H](NC(=O)c3ccc(C#CC4CC5(C4)CC(N4CCC6(CC4)COc4c6ccc6c4CN(C4CCC(=O)NC4=O)C6=O)C5)nn3)CC2)cc1Cl` (stereo partly shown) [Compound 252] the figure was 87%; with `N#Cc1ccc(O[C@H]2CC[C@H](NC(=O)c3ccc(N4CCC5(CCC(C(=O)N6CCC7(CC6)COc6c7ccc7c6CN(C6CCC(=O)NC6=O)C7=O)CC5)CC4)nn3)CC2)cc1Cl` (stereo partly shown) [Compound 253], 55%.
Same read-out and setting: with `COCC1(CN2CCC3(CC2)COc2c3ccc3c2CN(C2CCC(=O)NC2=O)C3=O)CCN(c2ccc(C(=O)N[C@H]3CC[C@H](Oc4ccc(C#N)c(Cl)c4)CC3)nn2)CC1` (stereo partly shown) [Compound 258] the figure was 84%; with `COc1cc(O[C@H]2C(C)(C)[C@H](NC(=O)c3ccc(N4CCC(C)(CN5CCC6(CCc7ccc8c(c7O6)C(=O)N(C6CCC(=O)NC6=O)C8=O)CC5)CC4)cc3)C2(C)C)ccc1C#N` (stereo partly shown) [Compound 268], -32%.

The subject of another test is LNCaP FGC cells. The experiment in a line: Inhibition of proliferation of LNCaP cells (WST-8). The format is cell-based. To be noted: Homo sapiens, LNCaP, 96 h, LNCaP FGC cells, 96 hours, WST-8 absorbance at 450 nm; read-out: IC50 for inhibiting the proliferation of LNCaP cells. The procedure:
The cells were cultured in a cell culture incubator with 5% CO2 at 37° C. overnight. […] On the sixth day, 96 well plates were taken out, and 20 μL of WST-8 (Beytime, C0040) reagent was added to each well.
For the molecule `COc1cc(OC2CCC(NC(=O)c3cnc(N4CCC(C)(CN5CCC6(CC5)COc5c6ccc6c5CN(C5CCC(=O)NC5=O)C6=O)CC4)nc3)CC2)ccc1C#N` (stereo not shown) [Compound 247], the IC50 was 15 nM.
The same measure, in the same setting: then `N#Cc1ccc(O[C@H]2CC[C@H](NC(=O)c3ccc(C#CC4CC5(C4)CC(N4CCC6(CC4)COc4c6ccc6c4CN(C4CCC(=O)NC4=O)C6=O)C5)nn3)CC2)cc1Cl` (stereo partly shown) [Compound 252], with 6240 nM; and `N#Cc1ccc(O[C@H]2CC[C@H](NC(=O)c3ccc(N4CCC5(CCC(C(=O)N6CCC7(CC6)COc6c7ccc7c6CN(C6CCC(=O)NC6=O)C7=O)CC5)CC4)nn3)CC2)cc1Cl` (stereo partly shown) [Compound 253], with 550 nM; and `COCC1(CN2CCC3(CC2)COc2c3ccc3c2CN(C2CCC(=O)NC2=O)C3=O)CCN(c2ccc(C(=O)N[C@H]3CC[C@H](Oc4ccc(C#N)c(Cl)c4)CC3)nn2)CC1` (stereo partly shown) [Compound 258], with 17 nM.
Take `COc1cc(O[C@H]2C(C)(C)[C@H](NC(=O)c3ccc(N4CCC(C)(CN5CCC6(CCc7ccc8c(c7O6)C(=O)N(C6CCC(=O)NC6=O)C8=O)CC5)CC4)cc3)C2(C)C)ccc1C#N` (stereo partly shown) [Compound 268]: the IC50 was determined as 88600 nM.
